Experimental findings from ChEMBL document CHEMBL1153137, “Improving the developability profile of pyrrolidine progesterone receptor partial agonists” (Bioorg Med Chem Lett, 2010) are described below.

A short description of series [1]: in vivo. The settings on record: rat, iv.
Series [2] can be described thus: in vivo. The settings on record: rat, iv. The source holds these as a separate data set.
The nature of series [3]: in vivo. The settings on record: rat, iv. This is another data set of the same source.
Series [4] in a line: in vivo. The settings on record: rat, iv. This is another data set of the same source.
Series [5] is described as follows: in vivo. The settings on record: rat, po, 4.2 mg/kg.

Take `Cc1ccccc1CN(c1ccc(C#N)c(Cl)c1)[C@H]1CCN(S(C)(=O)=O)C1`: the clearance (commonly the volume of plasma or blood freed of the substance per unit of time) in the series “in vivo [1]” was 98 mL/min/kg. Also, the half-life (usually how long it takes for the measured level to halve) in “in vivo [2]” was 96 min. Further, the Vd – broadly, the apparent volume that relates the amount in the body to the concentration in plasma or blood – in “in vivo [3]” stood at 12 L/kg. Further, the Cmax (usually the peak of the concentration-time curve) in the series “in vivo [4]” is 221 ng/mL. Further, the bioavailability (commonly the share of a dose that reaches the circulation, judged against a reference dose that is usually intravenous) in the series “in vivo [5]” was found to be 100%.
